Key:
[1] = system: tubulin assemblies of MCF-7 cells; test: Confocal microscopy of tubulin assemblies of MCF-7 cells; type: cell-based, human; settings: ABZ 2.1 nano-moles per liter, PTX 0.1 nano-moles per liter
Description: In addition, an un-treated control sample was prepared as reference for comparison. Then, samples were washed with PBS and permeabilized with microtubule stabilizing buffer [80 mM PIPES-KOH (pH 6.8), 5 mM EGTA, and 1 mM MgCl2 containing 0.5% Triton X-100] for 5 min at room temperature before being fixed with chilled absolute methanol for 10 min at −20° C. Thereafter, the fixed cells were washed and incubated with monoclonal mouse anti-α-tubulin antibody (Sigma Co.) for 1 hour at room temperature followed by incubation with FITC-conjugated antimouse IgG antibody (Santa Cruz Biotechnology). The stained cells were mounted with Vectashield (Vector Laboratories, Burlingame, Calif.) and observed by confocal microscopy.

MCF-7 cells = test: SiNW-ECIS impedance and capacitance response of MCF-7 cells to antitubulin drugs; type: cell-based, human; settings: MCF-7 on SiNW electrodes, PTX 0.1 nano-moles per liter; for normalized capacitance change versus control sample / normalized impedance change versus control sample: 2 hours (T1) after drug incubation; for normalized capacitance change versus control sample / normalized impedance change versus control sample / change in electrical impedance with respect to control sample / norm of capacitive changes, control sample more than drug value / change of norm in impedance of treated cells, T1 vs. T2: ABZ 2.1 nano-moles per liter; for change in electrical impedance with respect to control sample / norm of capacitive changes, control sample more than drug value: 6 hours (T2) after drug incubation
Description: In this example, the diagnostic response of cells membrane to extremely low dose of antitubulin drugs is investigated. Initially, MCF-7 cell lines, isolated from grade I human breast tumors, were obtained from the National Cell Bank of Iran (Pasteur Institute). Then, cells were maintained in a CO2 incubator (37° C., 5% CO2) in RPMI-1640 medium supplemented with 5% fetal bovine serum, and 1% penicillin/streptomycin. The fresh medium was replaced every other day. Then, the cultured cells were dropped on the surface of the SiNW-ECIS, designed and fabricated pursuant to teachings of the present application. Prior to each experiment, cells were trypsinized to be detached from the substrate and resuspended on the SiNW surface. To minimize the effect of trypsinization, the procedure may last for less than 4 minutes at room temperature of about 20° C. The samples were held in an incubator for about 4 hours to achieve cells attachment on the SiNWs. Thereafter, the ABZ drug with low concentrations of about 2.1 nano-moles per liter and the PTX drug with low concentrations of about 0.1 nano-moles per liter were added to individual samples. Finally, the signal recording and biological assays were investigated about 2 hours and 6 hours after the drug treatment (6 hours and 10 hours after the beginning of culturing process).
Referring to FIGS. 12A-12G, comparative normalized diagrams of impedance (designated by ΔZ% and represented by solid black lines) and capacitance changes (designated by ΔC% and represented by dashed grey lines) are illustrated for MCF-7 cells seeded on SiNW electrodes after treating by 2.1 nano-moles per liter of ABZ and 0.1 nano-moles per liter of PTX. The time interval between the drug incubation and the signal extraction are 2 hours (designated by T1) and 6 hours (designated by T2). In addition, the same diagrams are plotted for control sample prepared with no drug treatment stage.
According to the method described in the present example, the samples were maintained in an incubator so that the signal extraction was repeated 10 hours after cells dropping (6 hours after drug incubation for treated samples) to monitor the time evolution of drug induced MT polymerization/depolymerization on bioelectrical response of the membrane.

[2] = between 2 hours (T1) and 6 hours (T2) after drug incubation

CCCSc1ccc2nc(NC(=O)OC)[nH]c2c1 [ABZ, Albendazole]
spindle / microtubule appearance in confocal image ([1]; MCF-7, 2 hours after treatment): abnormally reduced numbers of spindles or monopolar (monoaster) spindles
spindle / microtubule appearance in confocal image ([1]; MCF-7, 6 hours after treatment): still the monoastered MTs are observable
normalized capacitance change versus control sample (MCF-7 cells): 70%
normalized impedance change versus control sample (MCF-7 cells): 25%
change in electrical impedance with respect to control sample (MCF-7 cells): about 90%
norm of capacitive changes, control sample more than drug value (MCF-7 cells): about 90%
change of norm in impedance of treated cells, T1 vs. T2 (MCF-7 cells; [2]): about 60%

CC(=O)O[C@H]1C(=O)[C@@]2(C)[C@H]([C@H](OC(=O)c3ccccc3)[C@]3(O)C[C@H](OC(=O)[C@H](O)[C@@H](NC(=O)c4ccccc4)c4ccccc4)C(C)=C1C3(C)C)[C@]1(OC(C)=O)CO[C@@H]1C[C@@H]2O [PTX, Paclitaxel]
spindle / microtubule appearance in confocal image ([1]; MCF-7, 2 hours after treatment): aggregated spindles
spindle / microtubule appearance in confocal image ([1]; MCF-7, 6 hours after treatment): increased aggregation in MT spindles is noticeable
normalized capacitance change versus control sample (MCF-7 cells): about 60%
normalized impedance change versus control sample (MCF-7 cells): about 50%
change in electrical impedance with respect to control sample (MCF-7 cells): about 30%
norm of capacitive changes, control sample more than drug value (MCF-7 cells): ~75%
change of norm in impedance of treated cells, T1 vs. T2 (MCF-7 cells; [2]): 15%
time dependent variation in capacitive behavior, T1 vs. T2 (MCF-7 cells; [2]): about 85%
